Patent publication US10301306B2, “Substituted dihydro-1H-pyrrolo[3,2-c]pyridin-4(5H)-ones as RIPK3 inhibitors” (BRISTOL-MYERS SQUIBB COMPANY, priority 2014, dated 2019)

These compounds were tested against RIPK3 (Homo sapiens (Human), UniProt Q9Y572) (assay: RIPK3 HTRF Kinase Assay). Conditions: RIPK3 1 nM; HTRF probe 23 nM; 60 min at room temperature; read-out: IC50 for Inhibition of RIPK3.
Assay type: binding

RIPK3, sequence (Q9Y572 whole entry, species assumed): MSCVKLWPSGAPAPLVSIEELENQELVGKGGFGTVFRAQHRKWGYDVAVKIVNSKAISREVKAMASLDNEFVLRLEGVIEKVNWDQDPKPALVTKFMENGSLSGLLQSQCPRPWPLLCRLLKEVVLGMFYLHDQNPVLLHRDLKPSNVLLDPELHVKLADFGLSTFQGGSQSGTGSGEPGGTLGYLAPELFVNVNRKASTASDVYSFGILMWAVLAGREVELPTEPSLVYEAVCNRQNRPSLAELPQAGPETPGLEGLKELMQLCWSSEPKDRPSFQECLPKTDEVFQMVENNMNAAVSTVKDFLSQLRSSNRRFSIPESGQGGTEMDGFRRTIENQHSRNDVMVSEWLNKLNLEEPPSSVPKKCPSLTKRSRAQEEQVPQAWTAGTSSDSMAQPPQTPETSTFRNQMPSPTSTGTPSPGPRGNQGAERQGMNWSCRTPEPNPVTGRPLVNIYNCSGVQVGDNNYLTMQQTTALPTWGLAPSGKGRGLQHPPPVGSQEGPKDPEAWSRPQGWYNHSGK

CC(=O)Nc1cccc(-c2c3c(n(CC4CCOCC4)c2-c2ccncc2)CCNC3=O)c1 [Example 106] and O=C1NCCc2c1c(-c1cnc3ccccc3c1)c(-c1ccncc1)n2CC1CCOCC1 [Example 111] fall in the same range of IC50: 100 to 15000 nM for the first, 100 to 15000 nM for the second.

N#Cc1cc(F)ccc1Cn1c2c(c(-c3ccc(F)cc3)c1-c1ccc3[nH]ccc3c1)C(=O)NCC2 [Example 19] and N#Cc1cc(F)ccc1Cn1c2c(c(-c3ccc(F)cc3)c1-c1ccnc(Cl)c1)C(=O)NCC2 [Example 22] fall in the same range of IC50: 100 to 15000 nM for the first, 100 to 15000 nM for the second.

Cc1noc(-c2ccc(Cn3c4c(c(-c5ccc(F)cc5)c3-c3ccncc3)C(=O)NCC4)cc2)n1 [Example 13, 3-(4-Fluorophenyl)-1-(4-(3-methyl-1,2,4-oxadiazol-5-yl)benzyl)-2-(pyridin-4-yl)-6,7-dihydro-1H-pyrrolo[3,2-c]pyridin-4(5H)-one] and COc1ccc(Cn2c3c(c(-c4ccc(F)cc4)c2-c2ccncc2)C(=O)NCC3)cc1 [Example 38] cannot be ordered by IC50: less than 30 nM for the first, less than 30 nM for the second.

Compared with CCC(=O)Nc1cc(-c2c(-c3ccc(F)cc3)c3c(=O)[nH]ccc3n2Cc2ccc(C(F)(F)F)cc2F)ccn1 [Example 156, N-(4-(1-(2-Fluoro-4-(trifluoromethyl)benzyl)-3-(4-fluorophenyl)-4-oxo-4,5-dihydro-1H-pyrrolo[3,2-c]pyridin-2-yl)pyridin-2-yl)propionamide], O=C1NCCc2c1c(-c1ccc(F)cc1)c(-c1ccnc(NCCO)c1)n2Cc1ccc(C(F)(F)F)cc1F [Example 146] is higher in IC50: less than 30 nM for the first, 31 to 100 nM for the second. The first is the more potent here.

First: Cc1nc(Cn2c3c(c(-c4ccc(F)cc4)c2-c2ccncc2)C(=O)NCC3)no1 [Example 81]
Second: Cc1noc(C)c1Cn1c2c(c(-c3ccc(F)cc3)c1-c1ccncc1)C(=O)NCC2 [Example 50]
The IC50 of the first is lower: 31 to 100 nM for the first, 100 to 15000 nM for the second.

First: O=C1NCCc2c1c(-c1ccc(F)cc1)c(-c1ccnc(NC(=O)C3CC3)c1)n2CC1CCOCC1 [Example 87]
Second: CCC(=O)Nc1cc(-c2c(-c3ccc(F)cc3)c3c(n2CC2CCOCC2)CCNC3=O)ccn1 [Example 90]
The IC50 of the first is lower: 31 to 100 nM for the first, 100 to 15000 nM for the second. The first is the more potent here.

First: CC(=O)Nc1cc(-c2c(-c3ccc(F)cc3)c3c(n2Cc2ccc(C(F)(F)F)cc2)CCNC3=O)ccn1 [Example 102]
Second: CC(=O)Nc1cc(-c2c(-c3ccc(F)cc3)c3c(n2Cc2ccc(F)c(C#N)c2)CCNC3=O)ccn1 [Example 99]
The IC50 of the first is higher: 100 to 15000 nM for the first, 31 to 100 nM for the second.

Compared with Cn1ccc2cc(-c3c4c(n(Cc5ccc(F)cc5C#N)c3-c3ccncc3)CCNC4=O)ccc21 [Example 118], N#Cc1cc(F)ccc1Cn1c2c(c(-c3ccc(Cl)c(Cl)c3)c1-c1ccncc1)C(=O)NCC2 [Example 136] is lower in IC50: 31 to 100 nM for the first, less than 30 nM for the second. The second is the more potent here.

Compared with N#Cc1ccc(Cn2c3c(c(-c4ccc(F)cc4)c2-c2ccncc2)C(=O)NCC3)cc1F [Example 35], Cc1cc(Cn2c3c(c(-c4ccc(F)cc4)c2-c2ccncc2)C(=O)NCC3)ccc1F [Example 46] is lower in IC50: 31 to 100 nM for the first, less than 30 nM for the second.

Cc1cc(Cn2c3c(c(-c4ccc(F)cc4)c2-c2cn[nH]c2)C(=O)NCC3)n(C)n1 [Example 184] and COC(=O)c1cccc(-c2c3c(n(Cc4cc(C)nn4C)c2-c2ccncc2)CCNC3=O)c1 [Example 172] fall in the same range of IC50: 100 to 15000 nM for the first, 100 to 15000 nM for the second.

N#Cc1ccc(Cn2c3c(c(-c4ccc(F)cc4)c2-c2ccncc2)C(=O)NCC3)c(F)c1 [Example 51] and O=C1NCCc2c1c(-c1ccc(F)cc1)c(-c1ccncc1)n2Cc1ccc(Cl)cc1F [Example 74] cannot be ordered by IC50: less than 30 nM for the first, less than 30 nM for the second.

O=C1NCCc2c1c(-c1ccc(F)cc1)c(-c1ccncc1)n2Cc1c(F)cc(F)cc1F [Example 71] and N#Cc1cccc(F)c1Cn1c2c(c(-c3ccc(F)cc3)c1-c1ccncc1)C(=O)NCC2 [Example 77] cannot be ordered by IC50: less than 30 nM for the first, less than 30 nM for the second.

N#Cc1cc(F)ccc1Cn1c2c(c(-c3ccc(F)cc3)c1-c1ccsc1)C(=O)NCC2 [Example 25] and N#Cc1cc(F)ccc1Cn1c2c(c(-c3ccc(F)cc3)c1-c1cncnc1)C(=O)NCC2 [Example 17] fall in the same range of IC50: 100 to 15000 nM for the first, 100 to 15000 nM for the second.

O=C1NCCc2c1c(-c1cccc3ccncc13)c(-c1ccncc1)n2CC1CCOCC1 [Example 112] and Cc1ccc(-c2c3c(n(CC4CCOCC4)c2-c2ccncc2)CCNC3=O)c(C)c1 [Example 103] fall in the same range of IC50: 100 to 15000 nM for the first, 100 to 15000 nM for the second.

Compared with COc1ccc(-c2c3c(n(Cc4ccc(F)cc4C#N)c2-c2ccncc2)CCNC3=O)cn1 [Example 124], COc1ccc(-c2c3c(n(Cc4ccc(F)cc4C#N)c2-c2ccncc2)CCNC3=O)cc1OC [Example 113] is higher in IC50: less than 30 nM for the first, 100 to 15000 nM for the second.

Compared with Nc1cc(-c2c(-c3ccc(F)cc3)c3c(n2Cc2ccc(C(F)(F)F)cc2F)CCNC3=O)ccn1 [Example 12, 2-(2-Aminopyridin-4-yl)-1-(2-fluoro-4-(trifluoromethyl)benzyl)-3-(4-fluorophenyl)-6,7-dihydro-1H-pyrrolo[3,2-c]pyridin-4(5H)-one], O=C1NCCc2c1c(-c1ccc(F)cc1)c(-c1ccncc1)n2Cc1ccc(C(F)(F)F)cc1F [Example 43] is lower in IC50: 100 to 15000 nM for the first, less than 30 nM for the second. The second is the more potent here.

First: N#Cc1cc(F)ccc1Cn1c2c(c(-c3cccc(S(N)(=O)=O)c3)c1-c1ccncc1)C(=O)NCC2 [Example 133]
Second: N#Cc1cc(F)ccc1Cn1c2c(c(-c3cccs3)c1-c1ccncc1)C(=O)NCC2 [Example 14, 5-Fluoro-2-((4-oxo-2-(pyridin-4-yl)-3-(thiophen-2-yl)-4,5,6,7-tetrahydro-1H-pyrrolo[3,2-c]pyridin-1-yl)methyl)benzonitrile]
The IC50 of the first is higher: 100 to 15000 nM for the first, less than 30 nM for the second. The second is the more potent here.

First: N#Cc1ccc(Cn2c3c(c(-c4ccc(F)cc4)c2-c2ccncc2)C(=O)NCC3)cc1 [Example 28]
Second: N#Cc1cccc(Cn2c3c(c(-c4ccc(F)cc4)c2-c2ccncc2)C(=O)NCC3)c1 [Example 2, 3-((3-(4-Fluorophenyl)-4-oxo-2-(pyridin-4-yl)-4,5,6,7-tetrahydro-1H-pyrrolo[3,2-c]pyridin-1-yl)methyl)benzonitrile]
The IC50 of the first is higher: 31 to 100 nM for the first, less than 30 nM for the second. The second is the more potent here.

Compared with N#Cc1cc(F)ccc1Cn1c2c(c(-c3ccc(OC(F)(F)F)cc3)c1-c1ccncc1)C(=O)NCC2 [Example 122], O=C1NCCc2c1c(-c1ccc(F)cc1)c(-c1ccncc1)n2Cc1ccc(F)cc1C(F)(F)F [Example 55] is lower in IC50: 100 to 15000 nM for the first, less than 30 nM for the second. The second is the more potent here.

First: CS(=O)(=O)c1ccc(Cn2c3c(c(-c4ccc(F)cc4)c2-c2ccncc2)C(=O)NCC3)cc1 [Example 42]
Second: O=C1NCCc2c1c(-c1ccc(F)cc1)c(-c1ccncc1)n2Cc1ccc(C2CC2)cc1 [Example 52]
The IC50 of the first is higher: 100 to 15000 nM for the first, 31 to 100 nM for the second. The second is the more potent here.

First: Cc1cscc1-c1c2c(n(Cc3ccc(F)cc3C#N)c1-c1ccncc1)CCNC2=O [Example 143]
Second: Cc1csc(-c2c3c(n(Cc4ccc(F)cc4C#N)c2-c2ccncc2)CCNC3=O)c1 [Example 142]
The IC50 of the first is higher: 100 to 15000 nM for the first, less than 30 nM for the second. The second is the more potent here.

N#Cc1cc(F)ccc1Cn1c2c(c(-c3cncc4ccccc34)c1-c1ccncc1)C(=O)NCC2 [Example 132] and COc1ccncc1-c1c2c(n(Cc3ccc(F)cc3C#N)c1-c1ccncc1)CCNC2=O [Example 131] fall in the same range of IC50: 100 to 15000 nM for the first, 100 to 15000 nM for the second.

Nc1cccc(-c2c3c(n(Cc4ccc(Cl)cc4F)c2-c2ccncc2)CCNC3=O)c1 [Example 169] and COC(=O)c1cccc(-c2c3c(n(Cc4ccc(Cl)cc4F)c2-c2ccncc2)CCNC3=O)c1 [Example 167] fall in the same range of IC50: 100 to 15000 nM for the first, 100 to 15000 nM for the second.

Cc1cc(Cn2c3c(c(-c4cccc(NC(=O)Cc5ccccc5)c4)c2-c2ccncc2)C(=O)NCC3)n(C)n1 [Example 175] and Cc1cc(Cn2c3c(c(-c4cccc(NC(=O)c5ccccc5)c4)c2-c2ccncc2)C(=O)NCC3)n(C)n1 [Example 176] fall in the same range of IC50: 100 to 15000 nM for the first, 100 to 15000 nM for the second.

Compared with CCCC(=O)Nc1cc(-c2c(-c3ccc(F)cc3)c3c(n2CC2CCOCC2)CCNC3=O)ccn1 [Example 94], CCOC(=O)Nc1cc(-c2c(-c3ccc(F)cc3)c3c(n2CC2CCOCC2)CCNC3=O)ccn1 [Example 95] is lower in IC50: 100 to 15000 nM for the first, 31 to 100 nM for the second. The second is the more potent here.

First: O=C1NCCc2c1c(-c1ccc(F)cc1)c(-c1ccncc1)n2Cc1ccc(C(F)(F)F)cc1C(F)(F)F [Example 53]
Second: COc1cc(C(F)(F)F)ccc1Cn1c2c(c(-c3ccc(F)cc3)c1-c1ccncc1)C(=O)NCC2 [Example 67]
The IC50 of the first is lower: less than 30 nM for the first, 31 to 100 nM for the second.

O=C(Nc1cc(-c2c(-c3ccc(F)cc3)c3c(n2CC2CCOCC2)CCNC3=O)ccn1)c1ccncc1 [Example 85] and CC1(C)CNC(=O)c2c(-c3ccc(F)cc3)c(-c3ccncc3)n(CC3CCOCC3)c21 [Example 152, 3-(4-Fluorophenyl)-7,7-dimethyl-2-(pyridin-4-yl)-1-((tetrahydro-2H-pyran-4-yl)methyl)-6,7-dihydro-1H-pyrrolo[3,2-c]pyridin-4(5H)-one] fall in the same range of IC50: 100 to 15000 nM for the first, 100 to 15000 nM for the second.

COc1ncc(-c2c(-c3ccc(F)cc3)c3c(n2Cc2ccc(F)cc2C#N)CCNC3=O)cn1 [Example 26] and Cn1cc(-c2c(-c3ccc(F)cc3)c3c(n2Cc2ccc(F)cc2C#N)CCNC3=O)cn1 [Example 24] fall in the same range of IC50: 100 to 15000 nM for the first, 100 to 15000 nM for the second.

Compared with O=C1NCCc2c1c(-c1ccncc1F)c(-c1ccncc1)n2Cc1ccc(Cl)cc1F [Example 166], CC(C)Cn1c2c(c(-c3ccc(F)cc3)c1-c1ccncc1)C(=O)NCC2 [Example 58] is lower in IC50: 100 to 15000 nM for the first, 31 to 100 nM for the second.

Cc1cc(Cn2c3c(c(-c4cccc(NC(=O)OC(C)(C)C)c4)c2-c2ccnc(NC(=O)C4CC4)c2)C(=O)NCC3)n(C)n1 [Example 185, tert-Butyl (3-(2-(2-(cyclopropanecarboxamido)pyridin-4-yl)-1-((1,3-dimethyl-1H-pyrazol-5-yl)methyl)-4-oxo-4,5,6,7-tetrahydro-1H-pyrrolo[3,2-c]pyridin-3-yl)phenyl)carbamate] and Cc1cc(Cn2c3c(c(-c4cccc(CCc5ccccc5)c4)c2-c2ccncc2)C(=O)NCC3)n(C)n1 [Example 180] fall in the same range of IC50: 100 to 15000 nM for the first, 100 to 15000 nM for the second.

Compared with CC(=O)Nc1cc(-c2c(-c3ccc(F)cc3)c3c(n2Cc2ccc(F)cc2C#N)CCNC3=O)ccn1 [Example 100], O=C1NCCc2c1c(-c1ccc(F)cc1)c(-c1ccncc1)n2CCCO [Example 69] is higher in IC50: less than 30 nM for the first, 31 to 100 nM for the second.

Same assay, conditions: read-out: IC50 for Inhibition of RIPK3

First: N#Cc1cc(F)ccc1Cn1c2c(c(-c3cccnc3)c1-c1ccncc1)C(=O)NCC2 [Example 119]
Second: O=C1NCCc2c1c(-c1cccnc1)c(-c1ccncc1)n2CC1CCOCC1 [Example 108]
The IC50 of the first is lower: 31 to 100 nM for the first, 100 to 15000 nM for the second. The first is the more potent here.

O=C1NCCc2c1c(-c1ccc(F)cc1)c(-c1ccncc1)n2CC1CCCNC1 (centres unmarked) [Example 32] gave an IC50 of 100 to 15000 nM.
